Results from PMC9913752, “Proof-of-Concept Study of an Alpha-Fetoprotein-Derived Peptide for the Management of Canine Mammary Cancer” (Animals : an Open Access Journal from MDPI, 2023).
Read-outs that look alike come from different tables or passages of the source. Where a SMILES comes first, the peptide text is derived from it. [ ]: non-standard residue; d: D form. Hyp = O=C(O)[C@@H]1C[C@@H](O)CN1

Assays:
[1] = tested on: Estrogen-induced mammary tumors; settings: cited from earlier work
Text: Table 1 The therapeutic and preventive efficacy of AFPep * in rodent models of mammary cancer. | column: Estrogen-Induced Mammary Tumors in ACI Rats ^3 || As models for preventive interventions, two widely used mammary cancer induction models in rats were studied to assess the cancer prevention capabilities of AFPep.

[2] = Blood chemistry and hematology after single i.v. dose in dogs; type: in vivo, dog; design: Bilirubin Conjugated / WBC: unit not given here
Description: Monkeys (Macaca mulatta, males) were contractually available through the Animal Resource Facility at Albany Medical College. The monkeys were used to assess pharmacokinetics and tolerability, in anticipation of future human studies. For dogs and monkeys, the full panels of clinical chemistry and hematology parameters were assessed. Monkeys were housed and cared for in accordance with the Guide for the Care and Use of Laboratory Animals (National Research Council, Washington, DC, USA). They were fed a standard Old World monkey diet, enriched with fruits and vegetables and other dietary novelties.

[3] = tested on: ER-positive primary canine mammary cancer cells; settings: cited from earlier work
Description: It is important to note that during the development of AFPep, head-to-tail cyclization was carried out to increase stability as well as oral bioavailability. Other investigators have shown that the cyclization of peptides increases bioavailability.

[4] = tested on: MCF-7 human breast cancer xenografts; settings: cited from earlier work
Description: Table 1 The therapeutic and preventive efficacy of AFPep * in rodent models of mammary cancer. | column: MCF-7 Human Breast Cancer Growth in SCID Mice ^1 || The efficacy of AFPep in various models of mammary cancer has been shown in multiple reports. […] A 4 mg/kg dose was assessed parenterally, and the dosage was escalated to 100 mg/kg, administered orally.

[5] = 8-day repeat-dose study, AFPep blood levels in tumor-bearing dogs; type: in vivo, dog; settings: for level at 0.5 h: female, dog, blood, sc, 10 mg
Text: Previous studies utilizing repeat dosing in mice and rats established safe starting doses for studies using dogs. Female dogs with one or more spontaneously occurring mammary gland tumors greater than approximately 2 cm in maximum diameter, presenting to the Cancer Institute at the Schwarzman Animal Medical Center in New York City, were screened for inclusion in the study. […] All dogs underwent complete clinical staging, consisting of a complete blood count with cell differential, clinical chemistry, and urinalysis. Dogs were administered AFPep 10 mg s.c. once daily for 8 consecutive days. Tumors were biopsied prior to the administration of AFPep and were surgically removed on day 8 after the last injection of AFPep. Blood levels of AFPep were measured before and 30 minutes following its administration on the first day and eighth day of treatment with AFPep. Histopathology was obtained on all mammary gland tumors. Tolerability was assessed using the Veterinary Cooperative Oncology Group Common Terminology Criteria for Adverse Events. Blood chemistry and hematology analyses were performed at IDEXX Laboratories Inc. (Westbrook, ME, USA), using the Sysmex XT and Beckman AU 5800 systems. This study was approved by the Schwarzman Animal Medical Center IACUC and informed consent was obtained in writing from all owners.

[6] = dogs ~10 kg, 24 h after i.v. 40 mg AFPep, average from 2 dogs
[7] = dogs ~10 kg, 24 h after i.v. 40 mg AFPep, average ± range from 2 dogs, in U/L (unit assumed)
[8] = dogs ~10 kg, 24 h after i.v. 40 mg AFPep, average ± range from 2 dogs, in g/dL (unit assumed)
[9] = dogs ~10 kg, 24 h after i.v. 40 mg AFPep, average ± range from 2 dogs, in mg/dL (unit assumed)
[10] = dogs ~10 kg, 24 h after i.v. 40 mg AFPep, average ± range from 2 dogs, in mmol/L (unit assumed)

Structure (SMILES): CC(C)[C@@H]1NC(=O)[C@@H]2C[C@@H](O)CN2C(=O)[C@H]([C@@H](C)O)NC(=O)[C@H](CCCCN)NC(=O)[C@H](CCC(=O)O)NC(=O)[C@H](CC(N)=O)NC(=O)CNC(=O)[C@@H]2C[C@@H](O)CN2C(=O)[C@H](CC(N)=O)NC1=O [AFPep] (cyclo(EKT[Hyp]VN[Hyp]GN))
- Estrogen-Induced Mammary Tumors in ACI Rats, % of Rats with Tumors ([1]; estradiol Silastic implant, AFPep s.c. once daily, p < 0.05): 48 * %
- latency period of cancer appearance ([1]; hormone-induced model): prolonged
- liver enzymes ([2]; 4 mg/kg i.v., dogs, no anesthesia, mild manual restraint): No such elevations in liver enzymes
- changes to clinical chemistry and hematology values ([2]; 4 mg/kg i.v., normal beagle dogs): In no case did exposure to AFPep result in significant changes
- Bilirubin Conjugated [2, 6]: 0
- Total Bilirubin [2, 6]: 0.1 mg/dL
- WBC ([2]; dogs ~10 kg, 24 h after i.v. 40 mg AFPep, average ± range from 2 dogs): 7.0 ± 3
- Platelet ([2]; dogs ~10 kg, 24 h after i.v. 40 mg AFPep, average ± range from 2 dogs, in 10^3/µL (unit assumed)): 274 ± 21
- RBC ([2]; dogs ~10 kg, 24 h after i.v. 40 mg AFPep, average ± range from 2 dogs, in 10^6/µL (unit assumed)): 6.9 ± 1
- HCT ([2]; dogs ~10 kg, 24 h after i.v. 40 mg AFPep, average ± range from 2 dogs, in % (unit assumed)): 46 ± 1.5
- ALP [2, 7]: 33 ± 2
- ALT [2, 7]: 16 ± 1
- AST [2, 7]: 20 ± 1
- Creatine Kinase [2, 7]: 135 ± 2.7
- GGT [2, 7]: 3 ± 1
- MCV ([2]; dogs ~10 kg, 24 h after i.v. 40 mg AFPep, average ± range from 2 dogs, in fL (unit assumed)): 68 ± 0.8
- Albumin [2, 8]: 3.2 ± 0.1
- Globulin [2, 8]: 2.6 ± 0.1
- HGB [2, 8]: 15.9 ± 1
- Total Protein [2, 8]: 5.8 ± 0.1
- BUN [2, 9]: 13.2 ± 2
- Calcium [2, 9]: 10.3 ± 0.4
- Cholesterol [2, 9]: 171 ± 2
- Creatinine [2, 9]: 0.7 ± 0.1
- Glucose [2, 9]: 93 ± 9
- Phosphorous [2, 9]: 4.6 ± 0.2
- Bicarbonate TCO2 [2, 10]: 21 ± 1
- Chloride [2, 10]: 112 ± 1
- Potassium [2, 10]: 4.7 ± 0.1
- Sodium [2, 10]: 146 ± 2
- MCH ([2]; dogs ~10 kg, 24 h after i.v. 40 mg AFPep, average ± range from 2 dogs, in pg (unit assumed)): 23.2 ± 1
- activity against ER-positive primary canine mammary cancer cells growing in culture [3]: effective
- MCF-7 Human Breast Cancer Growth in SCID Mice (tumor volume) ([4]; AFPep 100 μg/mouse (4 mg/kg) oral gavage once daily for 14 days, established xenografts, p < 0.05 vs saline): 30 mm³
- blood levels of AFPep needed for anti-breast cancer activity [4]: 10^−7 M
- minimum blood level (Cmax) needed for stoppage of xenograft growth ([4]; dose-response studies, human breast cancer xenografts in immune-deficient mice): 0.1 µg/mL
- minimum AUC needed for stoppage of xenograft growth ([4]; dose-response studies, xenografts in mice): 6.5 µg·min/mL
- tumor outgrowth when dosing begun immediately following tumor implantation ([4]; once daily, 30-day observation period): completely prevented
- growth of established MCF-7 xenografts ([4]; once-daily oral 4 mg/kg over a 14-day period, immunodeficient mice): almost completely stopped in their growth
- AFPep blood level, Day 8 Pre-Treatment ([5]; Chihuahua, 7.53 kg, 10 mg s.c. once daily for 8 days, single animal): 0 ng/mL
- AFPep blood level, Day 8 Pre-Treatment ([5]; Pitbull, 30.2 kg, 10 mg s.c. once daily for 8 days, single animal): 0 ng/mL
- AFPep blood level, Day 8 Pre-Treatment ([5]; Pomeranian, 7.98 kg, 10 mg s.c. once daily for 8 days, single animal): 0 ng/mL
- AFPep blood level, Day 8 Pre-Treatment ([5]; Shih tzu, 11.02 kg, 10 mg s.c. once daily for 8 days, single animal): 0 ng/mL
- AFPep blood level, Day 8 Pre-Treatment ([5]; Yorkshire terrier, 5.86 kg, 10 mg s.c. once daily for 8 days, single animal): 0 ng/mL
- level at 0.5 h ([5]; Pomeranian, Pomeranian, 7.98 kg, 30 min after 10 mg s.c., single animal, read-out: AFPep blood level, Day 1 Post-Treatment): 2400 ng/mL
- level at 0.5 h ([5]; Pomeranian, Pomeranian, 7.98 kg, 30 min after dose, 10 mg s.c. once daily for 8 days, single animal, read-out: AFPep blood level, Day 8 Post-Treatment): 2100 ng/mL
- level at 0.5 h ([5]; Poodle mix, Poodle mix, 5.80 kg, 30 min after 10 mg s.c., single animal, read-out: AFPep blood level, Day 1 Post-Treatment): 4400 ng/mL
- level at 0.5 h ([5]; Poodle mix, Poodle mix, 5.80 kg, 30 min after dose, 10 mg s.c. once daily for 8 days, single animal, read-out: AFPep blood level, Day 8 Post-Treatment): 5000 ng/mL
- level at 0.5 h ([5]; Yorkshire terrier, Yorkshire terrier, 5.86 kg, 30 min after 10 mg s.c., single animal, read-out: AFPep blood level, Day 1 Post-Treatment): 2200 ng/mL
- level at 0.5 h ([5]; Yorkshire terrier, Yorkshire terrier, 5.86 kg, 30 min after dose, 10 mg s.c. once daily for 8 days, single animal, read-out: AFPep blood level, Day 8 Post-Treatment): 1900 ng/mL
- level at 0.5 h ([5]; diverse breeds, Mean ± S.D. of 6 tumor-bearing dogs, 30 min after 10 mg s.c., first day, read-out: AFPep blood level, Day 1 Post-Treatment): 3600 ± 1200 ng/mL
- level at 0.5 h ([5]; diverse breeds, Mean ± S.D. of 6 tumor-bearing dogs, 30 min after the day-8 dose, 10 mg s.c. once daily for 8 days, read-out: AFPep blood level, Day 8 Post-Treatment): 2500 ± 600 ng/mL
- level at 0.5 h ([5]; summary of Table 6, 30 minutes post-AFPep, 10 mg s.c. once a day for 8 days, 6 tumor-bearing dogs, read-out: AFPep blood levels): 2000 to 3000 ng/mL
